From the supplement of paper PMC10307832

How the values were obtained:
Experiment in all cases: relative viability (nuclei count vs DMSO), 5 days (fraction); higher = more cells survive
[1] = compound: CCC1=CN=CN=C1N2CCN(CC2)CC3=NC4=C(N3)C=C(C=C4)C(F)(F)F + CC(C)C[C@H](NC(=O)[C@H](Cc1ccccc1)NC(=O)c1cnccn1)B(O)O [Bortezomib] (partner 0.002 µM)
Outline: (§1)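 Relative viability was taken as the ratio of nuclei in treated wells to nuclei in vehicle wells. Lung cancer cell lines in 1536-well plates received compounds by pin tool one day after seeding, either one drug alone or a fixed anchor-drug dose plus five library-drug doses (not always all listed) in √10 steps. Nuclei were counted on 4× images after 5 days of treatment, and values are medians of duplicate plates.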

[2] = compound: CCn1c(-c2nonc2N)nc2cnc(Oc3cccc(NC(=O)c4ccc(OCCN5CCOCC5)cc4)c3)cc21 + CC(C)C[C@H](NC(=O)[C@H](Cc1ccccc1)NC(=O)c1cnccn1)B(O)O [Bortezomib] (partner 0.002 µM)
Outline: as §1

[3] = compound: CCn1c(-c2nonc2N)nc2cnc(Oc3cccc(NC(=O)c4ccc(OCCN5CCOCC5)cc4)c3)cc21 + C[C@@H](Oc1cc(-c2cnn(C3CCNCC3)c2)cnc1N)c1c(Cl)ccc(F)c1Cl [Crizotinib] (partner 1 µM)
Outline: as §1

[4] = compound: CCn1c(-c2nonc2N)nc2cnc(Oc3cccc(NC(=O)c4ccc(OCCN5CCOCC5)cc4)c3)cc21 + Cc1nc(Nc2ncc(C(=O)Nc3c(C)cccc3Cl)s2)cc(N2CCN(CCO)CC2)n1 [Dasatinib] (partner 0.075 µM)
Outline: as §1

Cell Line	relative viability ([1]; first compound 0.04 µM)	relative viability ([1]; first compound 0.1265 µM)	relative viability ([1]; first compound 0.4 µM)	relative viability ([1]; first compound 1.265 µM)	relative viability ([1]; first compound 4 µM)	relative viability ([2]; first compound 0.04 µM)	relative viability ([2]; first compound 0.1265 µM)	relative viability ([2]; first compound 0.4 µM)	relative viability ([2]; first compound 1.265 µM)	relative viability ([2]; first compound 4 µM)	relative viability ([3]; first compound 0.04 µM)	relative viability ([3]; first compound 0.1265 µM)	relative viability ([3]; first compound 0.4 µM)	relative viability ([3]; first compound 1.265 µM)	relative viability ([3]; first compound 4 µM)	relative viability ([4]; first compound 0.04 µM)	relative viability ([4]; first compound 0.1265 µM)	relative viability ([4]; first compound 0.4 µM)	relative viability ([4]; first compound 1.265 µM)	relative viability ([4]; first compound 4 µM)
NCI-H1563	0.829	1	0.838	0.656	0.976	0.793	0.821	0.669	0.753	0.603	0.768	0.863	0.816	0.789	0.668	0.447	0.452	0.343	0.461	0.456
LXF-289	1.07	0.953	0.971	1.04	0.917	1.03	1.04	0.932	0.728	0.646	0.839	0.871	0.821	0.598	0.549	0.158	0.111	0.0564	0.0848	0.0678
LU99A	1.23	1.07	1.05	1.07	1.24	1.03	0.97	0.86	0.783	0.589	0.581	0.64	0.528	0.636	0.424	0.573	0.467	0.352	0.367	0.388
PC-3 [JPC-3]	0.838	0.765	0.757	0.807	0.854	0.958	0.867	0.727	0.772	0.63	0.961	0.96	1.04	0.967	0.939	0.981	0.902	0.605	0.728	0.648
NCI-H2085	0.927	0.949	1.13	1.03	1.04	1.11	1.01	0.86	0.872	0.861	0.988	0.797	0.661	0.741	0.72	0.307	0.308	0.396	0.251	0.223
HCC-78	0.538	0.592	0.59	0.528	0.517	0.465	0.53	0.494	0.605	0.705	0.429	0.357	0.333	0.393	0.399	0.428	0.474		0.4	0.428
NCI-H2228	1.29	1.11	1.19	1.05	1.11	1.12	0.897	0.921	0.591	0.839	0.468	0.385	0.49	0.432	0.471	0.592	0.519	0.431	0.407	0.421
H3255	0.671	0.849	0.739	0.816	0.756	1.03	0.9	0.728	0.526	0.531	1.13	0.815	0.725	0.49	0.637	0.375	0.367	0.331	0.341	0.291
